Assay results taken from the NIST ThermoML archive (doi:10.1021/acs.jced.8b01247).
Numbers after ± are expanded uncertainties.

Experiments:
[1] = Boiling temperature at pressure P; settings: Liquid, Ebulliometric method (Recirculating still)
[2] = 337.83 K; Liquid; Ebulliometric method (Recirculating still)

SMILES | Boiling temperature at pressure P ([1]; 101.3 kPa) [°C] | Boiling temperature at pressure P ([1]; 166.8 kPa) [°C] | Boiling temperature at pressure P ([1]; 217.3 kPa) [°C] | Boiling temperature at pressure P ([1]; 257 kPa) [°C] | Boiling temperature at pressure P ([1]; 313.1 kPa) [°C] | Boiling temperature at pressure P ([1]; 387.5 kPa) [°C] | vapor or sublimation pressure [2] [kPa]
CCC(C)OCOC (configuration not stated) [2-(methoxymethoxy)butane] | 109.7 ± 0.87 | 129.1 ± 1.3 | 139.94 ± 1.2 | 146.93 ± 1.2 | 155.67 ± 1.3 | 165.49 ± 1.5 | –
CO [methanol] | – | – | – | – | – | – | 101.3 ± 2.3
